Data published in US20240382485A1, “METHODS OF TREATING ABNORMAL CELL GROWTH” (Verastem, Inc., priority 2021, published 2024).

Legend:
Assay in all cases: 2D proliferation assay (CellTiter-Glo) with synergy analysis
[1] = system: H358 human non-small cell lung cancer (NSCLC) cells; type: cell-based; settings: for effect of doxycycline or minocycline on anti-tumor potency: 2D culture, 7 days, CellTiter-Glo; for synergy with antibiotics in the inhibition of tumor cell proliferation: with doxycycline or minocycline, H358, FIG. 3, Bliss, Loewe, HSA and ZIP analysis
Method: (§1) Anti-proliferative effects of an antibiotic agent such as doxycycline (e.g., 5 or 10 μM) or minocycline (e.g., 1.25 μM) in combination with VS-6766 (e.g., 40 nM) or defactinib (e.g., 1 μM) were tested in 2D culture in 3 different human tumor cell lines.
(§2) Human cancer cell lines were grown in 2D conditions. Briefly, cells were seeded in 100 μL of growth medium. After an overnight incubation (17-22 hours), cells were treated with VS-6766+/−minocycline or doxycycline for 7 days. Alternatively, cells were treated with defactinib+/−doxycycline for 7 days. Cell viability was measured using the cell viability CellTiter-Glo assay.
Raw data and metadata files were processed with a custom R-script for single agent and combination activity. Bliss, Loewe, Highest Single Agent (HSA) and ZIP synergy analysis were performed to generate a composite synergy score (e.g., see Malyutina A et al, “Drug combination sensitivity scoring facilitates the discovery of synergistic and efficacious drug combinations in cancer,” PLOS Computational Biology 15 (5): e1006752). Summary graphics and reports were saved for visualization and further analysis.
(§3) For example, consider that drug 1 at concentration x1 and drug 2 at concentration x2 were combined to produce the inhibition effect of yc, while their respective single drug effects were y1(x1) and y2(x2). The synergy score was calculated as the difference between yc and the expected effect ye if there is no synergy. Each synergy scoring takes a different model for ye: • 1. HSA: ye is the maximal single drug effect, defining
Dose-response matrices were used to assess anti-proliferative effects of the combination of VS-6766+/−minocycline or doxycycline, and the combination of defactinib+/−doxycycline. […] H358 human non-small cell lung cancer (NSCLC) cells were grown in 2D conditions. Cells were treated with VS-6766+/−minocycline or doxycycline for 7 days. Alternatively, cells were treated with defactinib+/−doxycycline for 7 days. Cell viability was measured using the cell viability CellTiter-Glo assay.
Synergy scores were calculated using a combination of 4 different methods (Bliss, Loewe, HSA and ZIP). Human cancer cell lines were run in a CTG proliferation assay. Raw data and metadata files were processed with a custom R-script for single agent and combination activity. Bliss, Loewe, Highest Single Agent (HSA) and ZIP synergy analysis were performed to generate a composite synergy score. The example used in this figure is VS-6766+doxycycline in H358 cells.
H358 human NSCLC cells were run in a CTG proliferation assay. Raw data and metadata files were processed with a custom R-script for single agent and combination activity. Bliss, Loewe, Highest Single Agent (HSA) and ZIP synergy analysis were performed to generate a composite synergy score. […]

TOV21G ovarian cancer = type: cell-based, human; settings: VS-6766+doxycycline, FIG. 4, Bliss, Loewe, HSA and ZIP analysis
Method: as §1, §2
(§4) Raw data and metadata files were processed with a custom R-script for single agent and combination activity. Bliss, Loewe, Highest Single Agent (HSA) and ZIP synergy analysis were performed to generate a composite synergy score (e.g., see Malyutina A et al, “Drug combination sensitivity scoring facilitates the discovery of synergistic and efficacious drug combinations in cancer,” PLOS Computational Biology 15 (5): e1006752). […]
as §3, with “Each synergy scoring takes a different model for ye: • 1. HSA: ye is the maximal single drug effect, defining” left out

H2122 NSCLC = type: cell-based, human; settings: VS-6766+doxycycline, H2122, FIG. 4; Bliss, Loewe, HSA and ZIP analysis
Method: as §1, §2, §4
as §3, with “Each synergy scoring takes a different model for ye: • 1. HSA: ye is the maximal single drug effect, defining” left out

## CNC(=O)c1ccc(Nc2ncc(C(F)(F)F)c(NCc3nccnc3N(C)S(C)(=O)=O)n2)cc1 [defactinib, reference compound]
[1]
  effect of doxycycline or minocycline on anti-tumor potency: increased anti-tumor potency
  synergy with antibiotics in the inhibition of tumor cell proliferation: synergistic

## CNS(=O)(=O)Nc1nccc(Cc2c(C)c3ccc(Oc4ncccn4)cc3oc2=O)c1F [VS-6766]
[1]
  effect of doxycycline or minocycline on anti-tumor potency: increased anti-tumor potency
  synergy with antibiotics in the inhibition of tumor cell proliferation: synergistic
TOV21G ovarian cancer
  synergy in the inhibition of tumor cell proliferation: synergistic effect
H2122 NSCLC
  synergy in the inhibition of tumor cell proliferation: synergistic effect
